Results taken from ChEMBL document CHEMBL1212787, “Antimicrobial peptide hLF1-11 directs granulocyte-macrophage colony-stimulating factor-driven monocyte differentiation toward macrophages with enhanced recognition and clearance of pathogens” (2010).
Active and inactive are the calls of the source. No cut-off for these calls is given here.

Experiments:
Macrophage [1] = assay: Modulation of GM-CSF-driven human macrophage differentiation assessed as induction of heat killed Candida albicans-stimulated IL-10 production in at 1 to 100 ug/ml after 20 hrs; format: functional, cell-based
Macrophage [2] = assay: Modulation of GM-CSF-driven human macrophage differentiation assessed as induction of LTA-stimulated IL-10 production in at 1 to 100 ug/ml after 20 hrs; format: functional, cell-based
Staphylococcus aureus [3] = assay: Antimicrobial activity against Staphylococcus aureus LUH2141 infected in human macrophage at 120 mins by FACS analysis (reference value: 17%); format: functional, organism-based
Staphylococcus aureus [4] = assay: Antimicrobial activity against Staphylococcus aureus LUH2141 infected in human macrophage assessed as bacteria phagocytosing macrophages at 120 mins by FACS analysis (reference value: 66%); format: functional
Macrophage [5] = assay: Modulation of GM-CSF-driven human macrophage differentiation assessed as induction of CD14 expression in at 100 ug/ml after 7 days by flow cytometry; format: functional, cell-based
Macrophage [6] = assay: Modulation of GM-CSF-driven human macrophage differentiation assessed as induction of 1x10^6 CFU heat-killed Candida albicans cells-stimulated TNF-alpha production at 100 ug/ml after 20 hrs; format: functional, cell-based
Candida albicans [7] = assay: Antimicrobial activity against Candida albicans infected in human macrophage assessed as fungal clearance at 60 mins by FACS analysis (reference value: 56%); format: functional, organism-based
Monocyte [8] = assay: Modulation of GM-CSF-driven human monocytes differentiation assessed as induction of LPS-induced IL-10 production after 60 mins; format: functional, cell-based
Macrophage [9] = assay: Modulation of GM-CSF-driven human macrophage differentiation assessed as induction of 0.1 ng/ml LPS-stimulatedIL-10 production at 100 ug/ml after 20 hrs; format: functional, cell-based
Macrophage [10] = assay: Modulation of GM-CSF-driven human macrophage differentiation assessed as induction of LPS-stimulated TNFalpha production in at 1 to 100 ug/ml after 20 hrs; format: functional, cell-based
Candida albicans [11] = assay: Antimicrobial activity against Candida albicans infected in human macrophage assessed as fungus phagocytosing compound-treated macrophages at 30 mins by FACS analysis (reference value: 28%); format: functional
Macrophage [12] = assay: Modulation of GM-CSF-driven human macrophage differentiation assessed as induction of LPS-stimulated IL-10 production in at 1 to 100 ug/ml after 20 hrs; format: functional, cell-based
Macrophage [13] = assay: Modulation of GM-CSF-driven human macrophage differentiation assessed as induction of heat killed Candida albicans-stimulated TNFalpha production in at 1 to 100 ug/ml after 20 hrs; format: functional, cell-based
Staphylococcus aureus [14] = assay: Antimicrobial activity against Staphylococcus aureus LUH2141 infected in human macrophage assessed as bacteria phagocytosing macrophages at 60 mins by FACS analysis (reference value: 30%); format: functional
[15] = Modulation of GM-CSF-driven human macrophage differentiation assessed as induction of dectin-1 expression at 100 ug/ml after 7 days by flow cytometry; format: functional, cell-based
Macrophage [16] = assay: Modulation of GM-CSF-driven human macrophage differentiation assessed as induction of LTA-stimulated IL-12p40 production in at 1 to 100 ug/ml after 20 hrs; format: functional, cell-based
[17] = Modulation of GM-CSF-driven human macrophage differentiation assessed as induction of TLR4 expression in at 100 ug/ml after 7 days by flow cytometry; format: functional, cell-based
Candida albicans [18] = assay: Antimicrobial activity against Candida albicans infected in human macrophage assessed as fungus phagocytosing compound-treated macrophages at 15 mins by FACS analysis (reference value: 13%); format: functional
Candida albicans [19] = assay: Antimicrobial activity against Candida albicans infected in human macrophage assessed as fungus phagocytosing compound-treated macrophages at 60 mins by FACS analysis (reference value: 47%); format: functional
Candida albicans [20] = assay: Antimicrobial activity against Candida albicans infected in human macrophage assessed as induction of phagocytosis of fungus after 60 mins by flow cytometry; format: functional, organism-based
Macrophage [21] = assay: Modulation of GM-CSF-driven human macrophage differentiation assessed as induction of heat killed Candida albicans-stimulated IL-12p40 production in at 10 ug/ml after 20 hrs; format: functional, cell-based
Staphylococcus aureus [22] = assay: Antimicrobial activity against Staphylococcus aureus LUH2141 infected in human macrophage at 60 mins by FACS analysis (reference value: 9%); format: functional, organism-based
Macrophage [23] = assay: Modulation of GM-CSF-driven human macrophage differentiation assessed as induction of CD11b expression at 100 ug/ml after 7 days by flow cytometry; format: functional, cell-based
Macrophage [24] = assay: Modulation of GM-CSF-driven human macrophage differentiation assessed as induction of 1 ng/ml LTA-stimulatedMCP1 production at 100 ug/ml after 20 hrs; format: functional, cell-based
Monocyte [25] = assay: Modulation of GM-CSF-driven human monocytes differentiation assessed as induction of LPS-induced IL-10 production after 7 days; format: functional, cell-based
Macrophage [26] = assay: Modulation of GM-CSF-driven human macrophage differentiation assessed as induction of CD206 expression at 100 ug/ml after 7 days by flow cytometry; format: functional, cell-based
Monocyte [27] = assay: Modulation of GM-CSF-driven human monocytes differentiation assessed as induction of LPS-induced IL-10 production after 10 mins; format: functional, cell-based
Macrophage [28] = assay: Modulation of GM-CSF-driven human macrophage differentiation assessed as induction of 10 ng/ml LTA-stimulatedMCP1 production at 100 ug/ml after 20 hrs; format: functional, cell-based
Macrophage [29] = assay: Modulation of GM-CSF-driven human macrophage differentiation assessed as induction of LTA-stimulated TNFalpha production in at 1 to 100 ug/ml after 20 hrs; format: functional, cell-based
Candida albicans [30] = assay: Antimicrobial activity against Candida albicans infected in human macrophage assessed as induction of phagocytosis of fungus after 10 mins by flow cytometry; format: functional, organism-based
[31] = Modulation of GM-CSF-driven human macrophage differentiation assessed as induction of TLR2 expression in at 100 ug/ml after 7 days by flow cytometry; format: functional, cell-based
Macrophage [32] = assay: Modulation of GM-CSF-driven human macrophage differentiation assessed as induction of LPS-stimulated IL-12p40 production in at 1 to 100 ug/ml after 20 hrs; format: functional, cell-based

## H-GRRRRSVQWCA-OH
Macrophage [1]
  Activity: Active
Macrophage [2]
  Activity: Active
Staphylococcus aureus [3]
  Activity: Active
Staphylococcus aureus [4]
  Activity: 72%
Macrophage [5]
  Activity: Active
Macrophage [6]
  Activity: Active
Candida albicans [7]
  Activity: Active
Monocyte [8]
  Activity: Active
Macrophage [9]
  Activity: Active
Macrophage [10]
  Activity: inactive
Candida albicans [11]
  Activity: 41%
Macrophage [12]
  Activity: Active
Macrophage [13]
  Activity: Active
Staphylococcus aureus [14]
  Activity: 49%
[15]
  Activity: Active
Macrophage [16]
  Activity: Active
[17]
  Activity: Active
Candida albicans [18]
  Activity: 22%
Candida albicans [19]
  Activity: 54%
Candida albicans [20]
  Activity: Active
Macrophage [21]
  Activity: Active
Staphylococcus aureus [22]
  Activity: Active
Macrophage [23]
  Activity: inactive
Macrophage [24]
  Activity: Active
Monocyte [25]
  Activity: Active
Macrophage [26]
  Activity: Active
Monocyte [27]
  Activity: inactive
Macrophage [28]
  Activity: Active
Macrophage [29]
  Activity: inactive
Candida albicans [30]
  Activity: inactive
[31]
  Activity: inactive
Macrophage [32]
  Activity: inactive
